Drawing on patent US9464063B2, “Benzo [B] [1,4] oxazin derivatives as calcium sensing receptor modulators” (LUPIN ATLANTIS HOLDINGS SA, priority 2011, dated 2016), this text covers EC50 for 36 compounds.

Structures are written as SMILES. Where a name gives a salt, the structure may show the parent alone.

The target in the assay is T1, Calcium sensing receptor (hCaSR) (Homo sapiens, UniProt P41180).
T1 construct: expressed in transfected cells
T1 sequence (P41180 20-1078): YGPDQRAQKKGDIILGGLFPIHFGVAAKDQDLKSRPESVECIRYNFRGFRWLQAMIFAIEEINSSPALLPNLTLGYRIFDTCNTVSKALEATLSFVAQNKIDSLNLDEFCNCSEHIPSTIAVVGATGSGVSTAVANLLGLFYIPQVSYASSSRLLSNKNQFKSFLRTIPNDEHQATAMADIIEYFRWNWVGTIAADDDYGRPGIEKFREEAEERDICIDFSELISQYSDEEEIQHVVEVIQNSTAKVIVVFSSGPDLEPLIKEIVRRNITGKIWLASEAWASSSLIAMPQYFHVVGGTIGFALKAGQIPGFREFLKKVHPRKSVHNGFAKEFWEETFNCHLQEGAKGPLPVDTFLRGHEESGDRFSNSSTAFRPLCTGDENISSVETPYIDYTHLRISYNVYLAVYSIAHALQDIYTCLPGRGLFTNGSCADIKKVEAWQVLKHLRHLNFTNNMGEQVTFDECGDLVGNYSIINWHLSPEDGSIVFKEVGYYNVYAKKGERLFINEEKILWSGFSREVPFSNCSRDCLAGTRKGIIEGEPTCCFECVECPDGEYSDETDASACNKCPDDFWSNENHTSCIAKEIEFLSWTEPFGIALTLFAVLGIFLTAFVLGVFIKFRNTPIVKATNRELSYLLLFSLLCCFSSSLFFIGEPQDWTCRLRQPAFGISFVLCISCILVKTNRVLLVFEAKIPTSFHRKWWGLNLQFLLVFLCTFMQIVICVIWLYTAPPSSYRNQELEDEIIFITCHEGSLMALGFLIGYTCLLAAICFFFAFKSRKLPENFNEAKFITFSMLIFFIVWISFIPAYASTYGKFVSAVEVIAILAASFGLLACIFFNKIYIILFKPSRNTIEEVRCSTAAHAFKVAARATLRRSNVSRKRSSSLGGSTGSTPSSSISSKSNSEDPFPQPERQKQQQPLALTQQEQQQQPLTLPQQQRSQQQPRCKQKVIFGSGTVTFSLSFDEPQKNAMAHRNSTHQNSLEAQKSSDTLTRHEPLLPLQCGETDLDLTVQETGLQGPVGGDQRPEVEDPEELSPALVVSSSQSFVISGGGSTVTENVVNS
The assay is described as follows: In-vitro assay of calcimimetics through modulation of calcium sensing receptor: increase in intracellular calcium [Ca2+]i, FLIPR. It counts as cell-based. The conditions noted are these: stably transfected HEK293 cells expressing hCaSR; Fluo4NW dye; 0.3 mM CaCl2; 8-point assay; read-out: EC50 Range. The protocol:
In-Vitro Assay Method of Calcimemtics Through Modulation of Calcium Sensing Receptor (CaSR):
The ability of the compounds to modulate Calcium sensing receptor is determined by measuring an increase in intracellular calcium [Ca^2+]i. Stably transfected HEK293 cells expressing hCaSR_pTriEx-3 hygro vector are developed. Cells are grown overnight on a 96-well plate to 80% confluency in Ham's F12 containing 20% FBS at 37° C., 5% CO2. Subsequently, cells are washed extensively with 20 mM HEPES buffer containing 126 mM NaCl, 1 mM MgCl2 and 4 mM KCl to remove serum components that might interfere with the assay. Cells are loaded with calcium sensing Fluo4NW dye in HEPES base buffer containing 0.1% BSA and 1 mg/ml glucose for 30 minutes to measure changes in intracellular calcium. The activities of the compounds are measured in FLIPR using 0.3 mM CaCl2 in 20 mM HEPES base buffer. The effectiveness of the compound to modulate receptor activity is determined by calculating the EC50 responses for that compound in an 8-point assay and plotted using GraphPad Prism 5.
On the technique in general: Calcium flux is commonly read through the fluorescence of an indicator in the cells.

A word on the EC50: it is the concentration at which the effect is half-maximal. On to `COC(=O)c1ccc(N2CC(CN[C@H](C)c3cccc4ccccc34)Oc3ccccc32)cc1` (single isomer, unassigned) [Example 2a, hydrochloride], for which the EC50 is 50 to 200 nM.
As for `COC(=O)c1ccc(N2CC(CN[C@H](C)c3cccc4ccccc34)Oc3ccccc32)cc1` (single isomer, unassigned) [Example 2b, hydrochloride], the EC50 lay in the range of 20 to 50 nM.
With `CCOC(=O)c1c(C)ccc(N2CC(CN[C@H](C)c3cccc4ccccc34)Oc3ccccc32)c1C` (single isomer, unassigned) [Example 24b], the EC50 was in the range of 20 to 50 nM.
As for `COC(=O)c1cc(N2CC(CN[C@H](C)c3cccc4ccccc34)Oc3ccccc32)ccc1C` (single isomer, unassigned) [Example 31a], the EC50 lay in the range of 20 to 50 nM.
In the case of `COC(=O)c1cc(N2CC(CN[C@H](C)c3cccc4ccccc34)Oc3ccccc32)ccc1C` (single isomer, unassigned) [Example 31b], the EC50 is under 20 nM.
As to `COc1ccc(C(=O)O)cc1N1CC(CN[C@H](C)c2cccc3ccccc23)Oc2ccccc21` (single isomer, unassigned) [Example 55a, hydrochloride], the EC50 lay in the range of 50 to 200 nM.
For `Cc1c(C(=O)O)cccc1N1CC(CN[C@H](C)c2cccc3ccccc23)Oc2ccccc21` (single isomer, unassigned) [Example 58a, hydrochloride], the EC50 was in the range of 20 to 50 nM.
As to `C[C@@H](NCC1CN(c2ccc(C(F)(F)F)c(C(=O)O)c2)c2ccccc2O1)c1cccc2ccccc12` (single isomer, unassigned) [Example 60a, hydrochloride], the EC50 lay in the range of 20 to 50 nM.
The value for `Cc1cc(C(=O)O)cc(N2CC(CN[C@H](C)c3cccc4ccccc34)Oc3ccccc32)c1` (single isomer, unassigned) [Example 62a, hydrochloride] was 50 to 200 nM; that for `C[C@@H](NCC1CN(c2ccc(C(=O)O)c(C(F)(F)F)c2)c2ccccc2O1)c1cccc2ccccc12` (single isomer, unassigned) [Example 64b, hydrochloride] was under 20 nM; that for `C[C@@H](NCC1CN(c2ccc(O)c(C(=O)O)c2)c2ccccc2O1)c1cccc2ccccc12` (single isomer, unassigned) [Example 66a, hydrochloride] was 20 to 50 nM.
The value for `C[C@@H](NCC1CN(c2ccc(O)c(C(=O)O)c2)c2ccccc2O1)c1cccc2ccccc12` (single isomer, unassigned) [Example 66b, hydrochloride] was under 20 nM.
With `COc1ccc(N2CC(CN[C@H](C)c3cccc4ccccc34)Oc3ccccc32)cc1C(=O)O` (single isomer, unassigned) [Example 67b, hydrochloride], the EC50 lay within 50 to 200 nM.
As to `C[C@@H](NCC1CN(c2cccc(CCC(=O)O)c2)c2ccccc2O1)c1cccc2ccccc12` (single isomer, unassigned) [Example 68b, hydrochloride], the EC50 lay within 50 to 200 nM.
For `Cc1ccc(N2CC(CN[C@H](C)c3cccc4ccccc34)Oc3ccccc32)c(C)c1C(=O)O` (single isomer, unassigned) [Example 70b, hydrochloride], the EC50 was under 20 nM.
In the case of `Cc1ccc(N2CC(CN[C@H](C)c3cccc4ccccc34)Oc3ccccc32)cc1C(=O)O` (single isomer, unassigned) [Example 71b, hydrochloride], the EC50 was under 20 nM.
In the case of `Cc1cc(N2CC(CN[C@H](C)c3cccc4ccccc34)Oc3ccccc32)ccc1C(=O)O` (single isomer, unassigned) [Example 73b, hydrochloride], the EC50 was under 20 nM.
In the case of `C[C@@H](NCC1CN(c2ccc(Cl)c(C(=O)O)c2)c2ccccc2O1)c1cccc2ccccc12` (single isomer, unassigned) [Example 75b, hydrochloride], the EC50 was in the range of 50 to 200 nM.
To `Cc1ccc(N2CC(CN[C@H](C)c3cccc4ccccc34)Oc3ccccc32)cc1OCC(=O)O` (single isomer, unassigned) [Example 76a, hydrochloride] belongs under 20 nM; to `Cc1ccc(N2CC(CN[C@H](C)c3cccc4ccccc34)Oc3ccccc32)cc1OC(C)(C)C(=O)O` (single isomer, unassigned) [Example 77a, hydrochloride], 50 to 200 nM; to `Cc1ccc(N2CC(CN[C@H](C)c3cccc4ccccc34)Oc3ccccc32)cc1C(=O)NCC(=O)O` (single isomer, unassigned) [Example 79b, hydrochloride], under 20 nM.
`Cc1ccc(N2CC(C)(CN[C@H](C)c3cccc4ccccc34)Oc3ccccc32)cc1C(=O)O` (single isomer, unassigned) [Example 86a, hydrochloride]: the EC50 fell in the range of 50 to 200 nM.
Take `Cc1ccc(N2C(=O)C(CN[C@H](C)c3cccc4ccccc34)Oc3ccccc32)cc1C(=O)O` (single isomer, unassigned) [Example 87b, hydrochloride]: the EC50 lay within 20 to 50 nM.
For the compound `Cc1ccc(N2CC(CCN[C@H](C)c3cccc4ccccc34)Oc3ccccc32)cc1C(=O)O` (single isomer, unassigned) [Example 133b, hydrochloride], the EC50 is under 20 nM.
`Cc1ccc(N2CC(CCN[C@H](C)c3cccc4ccccc34)Oc3c(F)cccc32)cc1C(=O)O` (single isomer, unassigned) [Example 159a, hydrochloride]: the EC50 lay within 20 to 50 nM.
With `C[C@@H](NCCC1CN(c2cccc(C(=O)O)c2)c2cccc(F)c2O1)c1cccc2ccccc12` (single isomer, unassigned) [Example 160a, hydrochloride], the EC50 is under 20 nM.
Take `C[C@@H](NCCC1CN(c2ccc(OCC(=O)O)cc2)c2ccc(F)cc2O1)c1cccc2ccccc12` (single isomer, unassigned) [Example 161a, hydrochloride]: the EC50 is under 20 nM.
For the compound `C[C@@H](NCCC1CN(c2ccc(OCC(=O)O)cc2)c2cccc(F)c2O1)c1cccc2ccccc12` (single isomer, unassigned) [Example 164a, hydrochloride], the EC50 was under 20 nM.
The value for `Cc1ccc(N2CC(CCN[C@H](C)c3cccc4ccccc34)Oc3ccc(F)cc32)cc1C(=O)O` (single isomer, unassigned) [Example 166a, hydrochloride] was under 20 nM; that for `C[C@@H](NCCC1CN(c2cccc(C(=O)O)c2)c2cc(F)ccc2O1)c1cccc2ccccc12` (single isomer, unassigned) [Example 167a] was under 20 nM.
For the compound `C[C@@H](NCCC1CN(c2cccc(C(=O)O)c2)c2cc(F)ccc2O1)c1cccc2ccccc12` (single isomer, unassigned) [Example 167b], the EC50 fell in the range of 20 to 50 nM.
As to `C[C@@H](NCCC1CN(c2ccc(OCC(=O)O)cc2)c2cc(F)ccc2O1)c1cccc2ccccc12` (single isomer, unassigned) [Example 168a], the EC50 is under 20 nM.
With `C[C@@H](NCCC1CN(c2cccc(OCC(=O)O)c2)c2cc(F)ccc2O1)c1cccc2ccccc12` (single isomer, unassigned) [Example 169a, hydrochloride], the concentration giving a half-maximal response (EC50) is under 20 nM.
Take `C[C@@H](NCCC1CN(c2cccc(OCC(=O)O)c2)c2c(F)cccc2O1)c1cccc2ccccc12` (single isomer, unassigned) [Example 171a, hydrochloride]: the 50% effective concentration (EC50) was under 20 nM.
In the case of `C[C@@H](NCCC1CN(c2ccc(OCC(=O)O)cc2)c2c(F)cccc2O1)c1cccc2ccccc12` (single isomer, unassigned) [Example 172a, hydrochloride], the EC50 is under 20 nM.
To `C[C@@H](NCC1CN(c2ccc(C(=O)O)cc2)c2ccccc2O1)c1cccc2ccccc12` (stereo partly drawn) [Example 6, 4-(2-((((R)-1-(Naphthalen-1-yl)ethyl)amino)methyl)-2H-benzo[b][1,4]oxazin-4(3H)-yl)benzoic acid hydrochloride] belongs 50 to 200 nM.
